Laboratory results taken from US9012443B2 (Amgen Inc., priority 2011, dated 2015).
Counter-ions that a name gives are not always drawn.

The molecules below were run against Nav 1.7 (Homo sapiens (Human), UniProt Q15858) (assay: Nav 1.7 in vitro PX assay (PatchXpress whole cell voltage clamp)). Settings: 293 cells, human Nav1.7, partially inactivated state; read-out: Nav1.7 PX IC50 IP.
Type: cell-based
Description: Nav 1.7 In Vitro PX Assay
293 cells stably transfected with human Nav1.7 were recorded in whole cell voltage clamp mode with the PatchXpress automated electrophysiology system (Molecular Devices, LLC, Sunnyvale, Calif.). Compound effects were measured on a partially inactivated state of the sodium channel. Cells were clamped to a holding potential yielding 20 to 50% inactivation. To elicit sodium current, channels were activated by pulsing to −10 mV for 20 msec. […] A single concentration of test compound was applied to cells for a duration of 3 minutes. Peak sodium current was measured at the end of the compound addition period to determine percent inhibition. Three to five cells were tested per concentration, and IC50 curves were fitted to percent inhibition as a function of concentration.

Chain of Nav 1.7 (Q15858 whole entry): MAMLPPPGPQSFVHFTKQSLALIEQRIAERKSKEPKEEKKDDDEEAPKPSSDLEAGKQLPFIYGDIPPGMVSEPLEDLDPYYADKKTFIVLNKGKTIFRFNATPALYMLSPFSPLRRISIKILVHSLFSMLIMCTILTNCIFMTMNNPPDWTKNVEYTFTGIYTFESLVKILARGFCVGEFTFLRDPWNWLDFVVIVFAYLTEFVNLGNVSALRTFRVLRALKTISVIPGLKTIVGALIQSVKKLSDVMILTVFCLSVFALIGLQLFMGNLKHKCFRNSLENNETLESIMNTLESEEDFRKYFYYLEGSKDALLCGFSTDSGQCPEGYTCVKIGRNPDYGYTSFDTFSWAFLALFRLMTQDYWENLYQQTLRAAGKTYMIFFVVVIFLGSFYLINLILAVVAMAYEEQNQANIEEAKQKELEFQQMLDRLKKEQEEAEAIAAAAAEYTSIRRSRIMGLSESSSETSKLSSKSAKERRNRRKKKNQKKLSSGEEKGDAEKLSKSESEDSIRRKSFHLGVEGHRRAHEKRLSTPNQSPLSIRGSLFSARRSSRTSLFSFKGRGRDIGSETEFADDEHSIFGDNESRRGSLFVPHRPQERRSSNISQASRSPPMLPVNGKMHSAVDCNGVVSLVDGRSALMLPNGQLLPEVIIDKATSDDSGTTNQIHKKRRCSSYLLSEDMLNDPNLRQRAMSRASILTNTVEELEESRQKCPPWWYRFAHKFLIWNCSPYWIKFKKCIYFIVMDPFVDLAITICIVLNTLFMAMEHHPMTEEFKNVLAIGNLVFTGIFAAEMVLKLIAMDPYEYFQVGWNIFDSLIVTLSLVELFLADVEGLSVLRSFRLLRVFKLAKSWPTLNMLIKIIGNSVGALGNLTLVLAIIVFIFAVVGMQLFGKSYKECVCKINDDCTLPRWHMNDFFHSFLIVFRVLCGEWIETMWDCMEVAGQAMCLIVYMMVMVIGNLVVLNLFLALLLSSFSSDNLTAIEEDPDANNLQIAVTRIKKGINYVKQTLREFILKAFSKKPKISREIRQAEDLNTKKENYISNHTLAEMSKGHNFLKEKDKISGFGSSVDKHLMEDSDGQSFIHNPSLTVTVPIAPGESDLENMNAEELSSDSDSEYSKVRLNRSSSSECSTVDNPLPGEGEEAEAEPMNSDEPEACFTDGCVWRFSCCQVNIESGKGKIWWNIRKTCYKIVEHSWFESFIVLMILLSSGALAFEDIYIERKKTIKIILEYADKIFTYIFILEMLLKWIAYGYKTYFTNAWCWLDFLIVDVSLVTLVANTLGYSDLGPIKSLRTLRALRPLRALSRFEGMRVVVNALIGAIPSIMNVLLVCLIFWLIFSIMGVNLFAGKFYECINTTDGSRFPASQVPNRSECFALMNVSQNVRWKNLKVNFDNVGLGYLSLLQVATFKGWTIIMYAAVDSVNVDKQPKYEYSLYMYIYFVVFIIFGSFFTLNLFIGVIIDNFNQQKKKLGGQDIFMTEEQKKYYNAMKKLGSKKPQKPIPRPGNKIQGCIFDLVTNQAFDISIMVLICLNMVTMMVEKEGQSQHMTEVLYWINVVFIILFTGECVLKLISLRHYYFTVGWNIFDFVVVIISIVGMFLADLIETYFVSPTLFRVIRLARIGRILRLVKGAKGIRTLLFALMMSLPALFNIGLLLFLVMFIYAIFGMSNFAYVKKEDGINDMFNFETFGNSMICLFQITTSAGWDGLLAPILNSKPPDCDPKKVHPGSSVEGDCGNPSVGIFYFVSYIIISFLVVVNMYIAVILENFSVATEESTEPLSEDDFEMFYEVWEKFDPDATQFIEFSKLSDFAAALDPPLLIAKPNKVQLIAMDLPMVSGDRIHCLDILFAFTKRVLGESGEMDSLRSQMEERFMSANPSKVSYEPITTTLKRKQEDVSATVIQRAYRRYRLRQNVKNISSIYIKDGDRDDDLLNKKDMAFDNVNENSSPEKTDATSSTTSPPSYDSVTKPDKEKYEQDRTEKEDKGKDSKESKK

**Q.** Which IC50 does the source give for N#Cc1cc(C(F)(F)F)ccc1-c1nccc2cc(S(=O)(=O)Nc3nccs3)ccc12 [Example 386, 1-(2-CYANO-4-(TRIFLUOROMETHYL)PHENYL)-N-(THIAZOL-2-YL)ISOQUINOLINE-6-SULFONAMIDE] here?
**A.** The IC50 was 1390 nM.

**Q.** How did the IC50 turn out when COc1cc(C#N)ccc1-c1cncc2cc(S(=O)(=O)Nc3ccncn3)ccc12 [Example 286, 4-(4-CYANO-2-METHOXYPHENYL)-N-(PYRIMIDIN-4-YL)ISOQUINOLINE-7-SULFONAMIDE HYDROCHLORIDE] was run?
**A.** The IC50 was 4220 nM.

**Q.** For COc1cc(F)ccc1-c1cncc2cc(S(=O)(=O)Nc3nccs3)ccc12 [Example 290, 4-(4-FLUORO-2-METHOXYPHENYL)-N-(THIAZOL-2-YL)ISOQUINOLINE-7-SULFONAMIDE], which IC50 is on record?
**A.** The IC50 was 600 nM.

**Q.** How did the IC50 turn out when N#CCOc1cc(Cl)ccc1-c1nccc2cc(S(=O)(=O)Nc3ncns3)ccc12 [Example 404, 1-(4-CHLORO-2-(CYANOMETHOXY)PHENYL)-N-(1,2,4-THIADIAZOL-5-YL)ISOQUINOLINE-6-SULFONAMIDE 2,2,2-TRIFLUOROACETATE] was run?
**A.** The IC50 was 428 nM.

**Q.** O=S(=O)(Nc1ncns1)c1ccc2c(N3CCC[C@@H]3c3ccncc3)cccc2c1 (single isomer, unassigned) [Example 90] was tested. Which IC50 did it give?
**A.** The IC50 was 39.3 nM.

**Q.** With N#CCOc1cc(Cl)ccc1-c1nccc2cc(S(=O)(=O)Nc3ccncn3)ccc12 [Example 376, 1-(4-CHLORO-2-(CYANOMETHOXY)PHENYL)-N-(PYRIMIDIN-4-YL)ISOQUINOLINE-6-SULFONAMIDE 2,2,2-TRIFLUOROACETATE] as the molecule, how does the IC50 read?
**A.** The IC50 was 2940 nM.

**Q.** With Cc1cc(C#N)ccc1-c1ccnc2cc(S(=O)(=O)Nc3ncns3)ccc12 [Example 323] as the molecule, how does the IC50 read?
**A.** The IC50 was 2300 nM.

**Q.** Which IC50 does the source give for N#CC(F)Oc1cc(F)ccc1-c1nccc2cc(S(=O)(=O)Nc3nccs3)ccc12 (stereo not drawn) [Example 416, 1-(2-(CYANOFLUOROMETHOXY)-4-FLUOROPHENYL)-N-(THIAZOL-2-YL)ISOQUINOLINE-6-SULFONAMIDE] here?
**A.** Its IC50 is 1220 nM.

**Q.** How did the IC50 turn out when COc1cc(C(F)(F)F)ccc1-c1nccc2cc(S(=O)(=O)N=C3NC(=O)CS3)ccc12 [Example 248, (E/Z)-1-(2-METHOXY-4-(TRIFLUOROMETHYL)PHENYL)-N-(4-OXOTHIAZOLIDIN-2-YLIDENE)ISOQUINOLINE-6-SULFONAMIDE] was run?
**A.** The IC50 was 910 nM.

**Q.** COc1ncc(C)cc1-c1nccc2cc(S(=O)(=O)Nc3nccs3)ccc12 [Example 411, 1-(2-METHOXY-5-METHYLPYRIDIN-3-YL)-N-(THIAZOL-2-YL)ISOQUINOLINE-6-SULFONAMIDE] was tested. Which IC50 did it give?
**A.** The IC50 was 685 nM.

**Q.** With COc1cc(C(F)(F)F)ccc1-c1ccnc2cc(S(=O)(=O)Nc3nccs3)c(OC)cc12 [Example 327, 6-METHOXY-4-(2-METHOXY-4-(TRIFLUOROMETHYL)PHENYL)-N-(THIAZOL-2-YL)QUINOLINE-7-SULFONAMIDE] as the molecule, how does the IC50 read?
**A.** Its IC50 is 2340 nM.

**Q.** For COc1cc(C(F)(F)F)ccc1-c1nccc2cc(S(=O)(=O)Nc3ncc(Cl)s3)ccc12 [Example 420, N-(5-CHLOROTHIAZOL-2-YL)-1-(2-METHOXY-4-(TRIFLUOROMETHYL)PHENYL)ISOQUINOLINE-6-SULFONAMIDE], which IC50 is on record?
**A.** Its IC50 is 367 nM.

**Q.** With COc1ccccc1-c1c(Br)cnc2cc(S(=O)(=O)Nc3nccs3)ccc12 [Example 325, 3-BROMO-4-(2-METHOXYPHENYL)-N-(THIAZOL-2-YL)QUINOLINE-7-SULFONAMIDE] as the molecule, how does the IC50 read?
**A.** Its IC50 is 5110 nM.

**Q.** For COc1cc(-c2cccnc2OC)ccc1-c1nccc2cc(S(=O)(=O)Nc3ccncn3)ccc12 [Example 482, 1-(2-METHOXY-4-(2-METHOXYPYRIDIN-3-YL)PHENYL)-N-(PYRIMIDIN-4-YL)ISOQUINOLINE-6-SULFONAMIDE], which IC50 is on record?
**A.** Its IC50 is 778 nM.

**Q.** For COc1cc(F)ccc1-c1ncc(C#N)c2cc(S(=O)(=O)Nc3nccs3)ccc12 [Example 399, 4-CYANO-1-(4-FLUORO-2-METHOXYPHENYL)-N-(THIAZOL-2-YL)ISOQUINOLINE-6-SULFONAMIDE], which IC50 is on record?
**A.** Its IC50 is 682 nM.

**Q.** For Cc1cnc(F)c(-c2nccc3cc(S(=O)(=O)Nc4nccs4)ccc23)c1 [Example 377, 1-(2-FLUORO-5-METHYLPYRIDIN-3-YL)-N-(THIAZOL-2-YL)ISOQUINOLINE-6-SULFONAMIDE], which IC50 is on record?
**A.** Its IC50 is 24500 nM.

**Q.** How did the IC50 turn out when COc1cc(C(F)(F)F)ccc1-c1nccc2cc(S(=O)(=O)Nc3ncco3)ccc12 [Example 389, 1-(2-METHOXY-4-(TRIFLUOROMETHYL)PHENYL)-N-(OXAZOL-2-YL)ISOQUINOLINE-6-SULFONAMIDE] was run?
**A.** Its IC50 is 2790 nM.

**Q.** With CC(C)(O)c1ccccc1-c1nccc2cc(S(=O)(=O)Nc3nccs3)ccc12 [Example 384, 1-(2-(2-HYDROXYPROPAN-2-YL)PHENYL)-N-(THIAZOL-2-YL)ISOQUINOLINE-6-SULFONAMIDE] as the molecule, how does the IC50 read?
**A.** The IC50 was 6710 nM.

**Q.** With COc1cc(-c2ccnc(F)c2)ccc1-c1nccc2cc(S(=O)(=O)Nc3ccncn3)ccc12 [Example 474, 1-(4-(2-FLUOROPYRIDIN-4-YL)-2-METHOXYPHENYL)-N-(PYRIMIDIN-4-YL)ISOQUINOLINE-6-SULFONAMIDE] as the molecule, how does the IC50 read?
**A.** The IC50 was 2610 nM.

**Q.** Which IC50 does the source give for COc1ccccc1-c1ncc(C#N)c2cc(S(=O)(=O)Nc3nccs3)ccc12 [Example 400, 4-CYANO-1-(2-METHOXYPHENYL)-N-(THIAZOL-2-YL)ISOQUINOLINE-6-SULFONAMIDE] here?
**A.** The IC50 was 1330 nM.

**Q.** With Cc1cnc(OC2CCNCC2)c(-c2nccc3cc(S(=O)(=O)Nc4nccs4)ccc23)c1 [Example 378, 1-(5-METHYL-2-(PIPERIDIN-4-YLOXY)PYRIDIN-3-YL)-N-(THIAZOL-2-YL)ISOQUINOLINE-6-SULFONAMIDE] as the molecule, how does the IC50 read?
**A.** The IC50 was 2420 nM.

**Q.** COc1cc(C(F)(F)F)ccc1-c1nccc2cc(S(=O)(=O)Nc3cnsn3)ccc12 [Example 388, 1-(2-METHOXY-4-(TRIFLUOROMETHYL)PHENYL)-N-(1,2,5-THIADIAZOL-3-YL)ISOQUINOLINE-6-SULFONAMIDE] was tested. Which IC50 did it give?
**A.** The IC50 was 1750 nM.

**Q.** For COc1cc(C(F)(F)F)ccc1-c1nccc2cc(S(=O)(=O)Nc3cc(Cl)ncn3)ccc12 [Example 422, N-(6-CHLOROPYRIMIDIN-4-YL)-1-(2-METHOXY-4-(TRIFLUOROMETHYL)PHENYL)ISOQUINOLINE-6-SULFONAMIDE], which IC50 is on record?
**A.** Its IC50 is 835 nM.

**Q.** Which IC50 does the source give for COc1cc(-c2cccc(F)c2)c(Cl)cc1-c1nccc2cc(S(=O)(=O)Nc3ncns3)ccc12 [Example 331, 1-(2-CHLORO-3′-FLUORO-5-METHOXY-[1,1′-BIPHENYL]-4-YL)-N-(1,2,4-THIADIAZOL-5-YL)ISOQUINOLINE-6-SULFONAMIDE] here?
**A.** Its IC50 is 23 nM.

**Q.** With COc1cc(C#N)ccc1-c1ncc(F)c2cc(S(=O)(=O)Nc3ncns3)ccc12 [Example 395, 1-(4-CYANO-2-METHOXYPHENYL)-4-FLUORO-N-(1,2,4-THIADIAZOL-5-YL)ISOQUINOLINE-6-SULFONAMIDE] as the molecule, how does the IC50 read?
**A.** The IC50 was 761 nM.

**Q.** Which IC50 does the source give for COc1ncccc1-c1ncc(F)c2cc(S(=O)(=O)Nc3nccs3)ccc12 [Example 396, 4-FLUORO-1-(2-METHOXYPYRIDIN-3-YL)-N-(THIAZOL-2-YL)ISOQUINOLINE-6-SULFONAMIDE] here?
**A.** Its IC50 is 1040 nM.

**Q.** How did the IC50 turn out when COc1cc(-c2cncc(F)c2)ccc1-c1nccc2cc(S(=O)(=O)Nc3ccncn3)ccc12 [Example 475, 1-(4-(5-FLUOROPYRIDIN-3-YL)-2-METHOXYPHENYL)-N-(PYRIMIDIN-4-YL)ISOQUINOLINE-6-SULFONAMIDE] was run?
**A.** The IC50 was 1880 nM.

**Q.** How did the IC50 turn out when COc1cc(C(F)(F)F)ccc1-c1nccc2cc(S(=O)(=O)Nc3ccc(F)cn3)ccc12 [Example 427, N-(5-FLUOROPYRIDIN-2-YL)-1-(2-METHOXY-4-(TRIFLUOROMETHYL)PHENYL)ISOQUINOLINE-6-SULFONAMIDE] was run?
**A.** The IC50 was 4420 nM.

**Q.** Which IC50 does the source give for COc1cc(-c2ccc(C)o2)ccc1-c1nccc2cc(S(=O)(=O)Nc3ccncn3)ccc12 [Example 461] here?
**A.** Its IC50 is 1780 nM.

**Q.** With COc1cc(-c2nccs2)ccc1-c1nccc2cc(S(=O)(=O)Nc3ccncn3)ccc12 [Example 456, 1-(2-METHOXY-4-(THIAZOL-2-YL)PHENYL)-N-(PYRIMIDIN-4-YL)ISOQUINOLINE-6-SULFONAMIDE] as the molecule, how does the IC50 read?
**A.** Its IC50 is 4700 nM.
